Test results as given in patent EP0157753B1, “New somatostatin compounds, process for their synthesis, preparation for veterinary use containing said compound and process for the treatment of animals” (TECHLAND, Société Anonyme, priority 1984, dated 1987).

Experiment: Treatment of young bulls with GPP: live weight gain and food intake over 7 months
Type: in vivo
Details: batch 5 (SRIF, MTP treated) versus batch 3 (SRIF, MDP treated); low, without any statistical significance
Experimental: They were injected four times with 100 µg of GPP or a mixture of equivalent amounts of muramyl di-or triptide and SRIF. Samples were solubilized in physiological medium supplemented with 40 % WN polyethyleneglycol 6000. Intramuscular injections in the neck of animals were performed with 3 ml of the solution at days 0, 10, 30 and 60 of the 7 months period. During the seventh months treatment period the animals received a concentrate ad libitum. Each month, the animals were weighed and blood samples were taken for further analyses. The results concerning the parameters studied in this zootechnical experiment were summarized in the following.
Variance analysis of the body live weight gain has been performed on 27 animals alive on September 27, 1984 (16 controls and 11 treated animals). At that time, the difference of life weight gain between the 16 control animals and the 11 treated animals was 31.3 kg per animal, i. e. 11 % over controls.

Substance: SRIF, MTP: Coupling of a muramyl tripeptide analog (N-acetyl muramyl-L-Ala-D-isoglutamyl-L-lysine OMe) with somatostatine (SRIF)
- deviation between the life gain of treated animals of batch 5 and batch 3: 5.7 kg
